According to patent US20240050409A1, “Methods and Compositions for Treating Psychotic Disorders” (SOUND PHARMACEUTICALS INCORPORATED, priority 2014, published 2024):
“Also recorded” adds a separate entry of the source.

Tested on: dopamine D2-dependent modulation of EPSPs in PFC pyramidal cells of NVHL rats
Assay: Slice electrophysiology: D2 (quinpirole) modulation of EPSPs in PFC layer V pyramidal cells of NVHL rats
Format: in vivo, Sprague-Dawley rats
Conditions: adult NVHL rat PFC slices, quinpirole 5 μM; treatment during development
Method: If juvenile oxidative stress is the cause of physiological anomalies observed in adult NVHL rats, NAC treatment can rescue these alterations. Whole-cell recordings were conducted from pyramidal neurons in adult brain slices containing the medial PFC of SHAM (n=12), NVHL (n=16), and NAC-treated NVHL rats (n=14). As previously shown in adult NVHL rats and other rodent models of schizophrenia (Niwa et al., 2010; Tseng et al., 2008), the dopamine D2-dependent modulation of excitatory postsynaptic potentials (EPSPs) in layer V pyramidal cells was lost in NVHL rats (as shown in FIGS. 13A-C). This loss is likely due to abnormal maturation of PFC interneurons, as the normal adult D2 modulation includes a GABA-A receptor component (Tseng and O'Donnell, 2007), but oxidative stress in pyramidal neurons may also play a role. To determine whether altered PVI-dependent PFC synaptic responses are due to oxidative stress, rats were treated with NAC during development and then tested for D2 modulation of PFC physiology.
Antioxidant pretreatment regimen: NAC (BioAdvantexPharma, Mississauga, Ontario, Canada) was administered in the drinking water at 900 mg/l. NAC treatment started at P5 or at P35, and previous work in mice has shown that NAC consumed by the dam is transmitted to the pups through her milk (das Neves Duarte et al., 2012). NAC treatment ended at P50. […]

## CC(=O)N[C@@H](CS)C(=O)O [NAC, N-acetyl cysteine]
  effect on lost D2 modulation (quinpirole attenuation) of EPSPs: rescued; also recorded: reverses
